Results as given in PubChem BioAssay AID2060490 (Molecular Pharmacology Branch, DTP, NCI, 2025).
pIC50: −log10 of the molar value.

System: 885512-296-R-J2-PDC complex spheroid viability
Experiment: Anticancer human tumor 885512-296-R-J2-PDC patient-derived breast carcinoma cell line growth inhibition [GQUAD]
Conditions: for pIC50: curve of first compound; for viability, T/C: stronger effect = lower value
In short: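 Tumor cells were grown as complex spheroids with HUVEC endothelial cells and mesenchymal stem cells as stroma. G-quadruplex stabilizers were combined with targeted agents over half-log dilutions from near the clinical Cmax, or from 10 microM.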

[1] = second compound 0.0316 µM, first compound 0.0316 µM
[2] = second compound 0.0316 µM, first compound 0.1 µM
[3] = second compound 0.0316 µM, first compound 0.316 µM
[4] = second compound 0.0316 µM, first compound 1 µM
[5] = second compound 0.0316 µM, first compound 3.16 µM
[6] = second compound 0.0316 µM, first compound 10 µM
[7] = second compound 0.1 µM, first compound 0.0316 µM
[8] = second compound 0.1 µM, first compound 0.1 µM
[9] = second compound 0.1 µM, first compound 0.316 µM
[10] = second compound 0.1 µM, first compound 1 µM
[11] = second compound 0.1 µM, first compound 3.16 µM
[12] = second compound 0.1 µM, first compound 10 µM
[13] = second compound 0.316 µM, first compound 0.0316 µM
[14] = second compound 0.316 µM, first compound 0.1 µM
[15] = second compound 0.316 µM, first compound 0.316 µM
[16] = second compound 0.316 µM, first compound 1 µM
[17] = second compound 0.316 µM, first compound 3.16 µM
[18] = second compound 0.316 µM, first compound 10 µM
[19] = second compound 1 µM, first compound 0.0316 µM
[20] = second compound 1 µM, first compound 0.1 µM
[21] = second compound 1 µM, first compound 0.316 µM
[22] = second compound 1 µM, first compound 1 µM
[23] = second compound 1 µM, first compound 3.16 µM
[24] = second compound 1 µM, first compound 10 µM
[25] = second compound 3.16 µM, first compound 0.0316 µM
[26] = second compound 3.16 µM, first compound 0.1 µM
[27] = second compound 3.16 µM, first compound 0.316 µM
[28] = second compound 3.16 µM, first compound 1 µM
[29] = second compound 3.16 µM, first compound 3.16 µM
[30] = second compound 3.16 µM, first compound 10 µM
[31] = second compound 10 µM, first compound 0.0316 µM
[32] = second compound 10 µM, first compound 0.1 µM
[33] = second compound 10 µM, first compound 0.316 µM
[34] = second compound 10 µM, first compound 1 µM
[35] = second compound 10 µM, first compound 3.16 µM
[36] = second compound 10 µM, first compound 10 µM
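Further: spheroids exposed to the compounds for one week.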
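Wherever viability, T/C is given: percent of tumor spheroid viability relative to DMSO vehicle control wells.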

Cc1cccc(N(C)C(=O)C2C(O)CCN2c2nc(C)cc(C(F)(F)F)c2C#N)c1 (stereo unspecified) + CN(C)c1ccc(Nc2c3ccc(NC(=O)CCN4CCCC4)cc3nc3cc(NC(=O)CCN4CCCC4)ccc23)cc1
pIC50 (second compound 0.0316 µM): < 5.00
pIC50 (second compound 0.1 µM): < 5.00
pIC50 (second compound 0.316 µM): < 5.00
pIC50 (second compound 1 µM): < 5.00
pIC50 (second compound 3.16 µM): < 5.00
pIC50 (second compound 10 µM): > 7.50
viability, T/C [1]: 101%
viability, T/C [2]: 89.8%
viability, T/C [3]: 106%
viability, T/C [4]: 102%
viability, T/C [5]: 113%
viability, T/C [6]: 97.7%
viability, T/C [7]: 110%
viability, T/C [8]: 106%
viability, T/C [9]: 102%
viability, T/C [10]: 87.3%
viability, T/C [11]: 104%
viability, T/C [12]: 91.7%
viability, T/C [13]: 111%
viability, T/C [14]: 99.6%
viability, T/C [15]: 106%
viability, T/C [16]: 97.8%
viability, T/C [17]: 101%
viability, T/C [18]: 96.8%
viability, T/C [19]: 88.5%
viability, T/C [20]: 105%
viability, T/C [21]: 95.1%
viability, T/C [22]: 93.2%
viability, T/C [23]: 84.6%
viability, T/C [24]: 80.8%
viability, T/C [25]: 94.8%
viability, T/C [26]: 96.5%
viability, T/C [27]: 108%
viability, T/C [28]: 86.8%
viability, T/C [29]: 96.2%
viability, T/C [30]: 62.2%
viability, T/C [31]: 23.6%
viability, T/C [32]: 22.4%
viability, T/C [33]: 18.6%
viability, T/C [34]: 19.3%
viability, T/C [35]: 15.8%
viability, T/C [36]: 5.88%

CC(C)(O)C1CCC(Nc2ccc3ncc(-c4cccc(C(F)(F)F)c4)n3n2)CC1 (stereo unspecified) + Cc1[nH]c2ccc(F)cc2c1-c1nc2c3cccnc3c3ncccc3c2[nH]1
pIC50 (second compound 0.0316 µM): < 5.00
pIC50 (second compound 0.1 µM): < 5.00
pIC50 (second compound 0.316 µM): < 5.00
pIC50 (second compound 1 µM): 5.16
pIC50 (second compound 3.16 µM): > 7.50
pIC50 (second compound 10 µM): > 7.50
viability, T/C [1]: 102%
viability, T/C [2]: 92.3%
viability, T/C [3]: 92.1%
viability, T/C [4]: 95.3%
viability, T/C [5]: 99%
viability, T/C [6]: 81.1%
viability, T/C [7]: 106%
viability, T/C [8]: 101%
viability, T/C [9]: 92.8%
viability, T/C [10]: 76.1%
viability, T/C [11]: 84.9%
viability, T/C [12]: 86.9%
viability, T/C [13]: 101%
viability, T/C [14]: 89.6%
viability, T/C [15]: 83.1%
viability, T/C [16]: 92.5%
viability, T/C [17]: 81.8%
viability, T/C [18]: 63.6%
viability, T/C [19]: 69%
viability, T/C [20]: 70.7%
viability, T/C [21]: 73.6%
viability, T/C [22]: 69.9%
viability, T/C [23]: 58.6%
viability, T/C [24]: 45.3%
viability, T/C [25]: 9.24%
viability, T/C [26]: 12.2%
viability, T/C [27]: 10.3%
viability, T/C [28]: 10.4%
viability, T/C [29]: 12.7%
viability, T/C [30]: 2.78%
viability, T/C [31]: 1.94%
viability, T/C [32]: 1.3%
viability, T/C [33]: 2.71%
viability, T/C [34]: 3.75%
viability, T/C [35]: 4.01%
viability, T/C [36]: 1%

CC(=O)O[C@H]1C(=O)[C@@]2(C)[C@H]([C@H](OC(=O)c3ccccc3)[C@]3(O)C[C@H](OC(=O)[C@H](O)[C@@H](NC(=O)c4ccccc4)c4ccccc4)C(C)=C1C3(C)C)[C@]1(OC(C)=O)CO[C@@H]1C[C@@H]2O + Cc1[nH]c2ccc(F)cc2c1-c1nc2c3cccnc3c3ncccc3c2[nH]1
pIC50 (second compound 0.0316 µM): 6.83
pIC50 (second compound 0.1 µM): 6.75
pIC50 (second compound 0.316 µM): 6.62
pIC50 (second compound 1 µM): 6.93
pIC50 (second compound 3.16 µM): > 7.50
pIC50 (second compound 10 µM): > 7.50
viability, T/C [1]: 100%
viability, T/C [2]: 67.2%
viability, T/C [3]: 16.9%
viability, T/C [4]: 3.76%
viability, T/C [5]: 1%
viability, T/C [6]: 0.76%
viability, T/C [7]: 90.5%
viability, T/C [8]: 77.2%
viability, T/C [9]: 21.5%
viability, T/C [10]: 5.55%
viability, T/C [11]: 0.13%
viability, T/C [12]: 0.12%
viability, T/C [13]: 78.4%
viability, T/C [14]: 70.6%
viability, T/C [15]: 43.7%
viability, T/C [16]: 5.11%
viability, T/C [17]: 0.81%
viability, T/C [18]: 0.08%
viability, T/C [19]: 52.8%
viability, T/C [20]: 58.1%
viability, T/C [21]: 16.4%
viability, T/C [22]: 1.87%
viability, T/C [23]: 0.21%
viability, T/C [24]: 0.41%
viability, T/C [25]: 3.83%
viability, T/C [26]: 6.17%
viability, T/C [27]: 8.48%
viability, T/C [28]: 0.24%
viability, T/C [29]: 0.53%
viability, T/C [30]: 0.46%
viability, T/C [31]: 1.53%
viability, T/C [32]: 1.57%
viability, T/C [33]: 4.36%
viability, T/C [34]: 0.21%
viability, T/C [35]: 0.84%
viability, T/C [36]: 1.07%
